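Results reflect a 48-hour exposure of cells in 96-well plates to compound at five concentrations. GI50 = concentration required for 50% inhibition of growth.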 The source made the active and inactive calls. Cut-off read from the data, not from the text of the source: active = GI50 up to about 1.1 µM and inactive = higher.
Experiments:
Assay in all cases: DTP human tumour cell line panel, 48 h
SNB-19 = test system: SNB-19
UACC-257 = test system: UACC-257
NCI-H522 = test system: NCI-H522
KM12 = test system: KM12
A549 = test system: A549
NCI-H226 = test system: NCI-H226
RPMI-8226 = test system: RPMI-8226
786-0 = test system: 786-0
SK-MEL-28 = test system: SK-MEL-28
SW-620 = test system: SW-620
SN12C = test system: SN12C
MOLT-4 = test system: MOLT-4
OVCAR-8 = test system: OVCAR-8
K562 = test system: K562
SK-MEL-2 = test system: SK-MEL-2
NCI-H23 = test system: NCI-H23
RXF 393 = test system: RXF 393

Measured: GI50

COc1nc(NC2OC(COC(C)=O)C(OC(C)=O)C(OC(C)=O)C2OC(C)=O)c(-c2csc(N)n2)c(=O)n1C (configuration not stated)
inactive: SNB-19 > 100 µM | UACC-257 58.3 µM | NCI-H522 46.5 µM | KM12 > 100 µM | A549 55 µM | NCI-H226 37.9 µM | RPMI-8226 > 100 µM | 786-0 20.5 µM | SK-MEL-28 55.7 µM | SW-620 > 100 µM | SN12C > 100 µM | MOLT-4 > 100 µM | OVCAR-8 31.8 µM | K562 60.1 µM | SK-MEL-2 21.5 µM | NCI-H23 66.1 µM

ClC(/N=N/c1ccccc1)=N/Nc1ccccc1
inactive: RXF 393 > 100 µM | SNB-19 > 100 µM | UACC-257 > 100 µM | NCI-H522 61.9 µM | KM12 60.7 µM | A549 > 100 µM | NCI-H226 > 100 µM | 786-0 > 100 µM | SK-MEL-28 > 100 µM | SW-620 31.8 µM | SN12C > 100 µM | MOLT-4 > 100 µM | OVCAR-8 > 100 µM | K562 38.3 µM | SK-MEL-2 > 100 µM | NCI-H23 > 100 µM

CC1COS(=O)O1 (configuration not stated)
inactive: SNB-19 > 100 µM | UACC-257 > 100 µM | NCI-H522 > 100 µM | KM12 > 100 µM | A549 > 100 µM | NCI-H226 > 100 µM | RPMI-8226 > 100 µM | 786-0 > 100 µM | SK-MEL-28 > 100 µM | SW-620 > 100 µM | SN12C > 100 µM | MOLT-4 > 100 µM | OVCAR-8 > 100 µM | K562 > 100 µM | SK-MEL-2 > 100 µM | NCI-H23 > 100 µM

CCC(CC)n1c(C)nc2c1C(=O)c1ccccc1C2=O
inactive: RXF 393 35.2 µM | SNB-19 71.1 µM | UACC-257 24 µM | NCI-H522 48.1 µM | KM12 36.9 µM | A549 35.3 µM | NCI-H226 72.8 µM | 786-0 57.1 µM | SK-MEL-28 49.3 µM | SW-620 52.2 µM | SN12C 46.3 µM | MOLT-4 41.2 µM | OVCAR-8 40.5 µM | K562 21.1 µM | SK-MEL-2 27.6 µM | NCI-H23 21.5 µM

COc1cc2c(cc1OC)C(=O)N1CCCC1C(=O)S2 (configuration not stated)
inactive: RXF 393 > 100 µM | SNB-19 > 100 µM | UACC-257 > 100 µM | NCI-H522 > 100 µM | KM12 > 100 µM | A549 > 100 µM | RPMI-8226 > 100 µM | 786-0 > 100 µM | SK-MEL-28 > 100 µM | SW-620 > 100 µM | SN12C > 100 µM | MOLT-4 > 100 µM | OVCAR-8 > 100 µM | K562 > 100 µM | SK-MEL-2 > 100 µM | NCI-H23 > 100 µM

CCCCCCCCCCCCn1[nH]c(C)c(C(=S)SCCCCCCCC)c1=O
inactive: RXF 393 37.3 µM | SNB-19 > 82.8 µM | UACC-257 41.8 µM | NCI-H522 31.9 µM | KM12 70.1 µM | A549 69.5 µM | NCI-H226 23.4 µM | 786-0 45.4 µM | SK-MEL-28 > 100 µM | SW-620 35.2 µM | SN12C 86.3 µM | MOLT-4 14 µM | OVCAR-8 30.7 µM | K562 40.3 µM | SK-MEL-2 > 100 µM | NCI-H23 73.3 µM

O=C1c2ccccc2C(=O)c2nc3ccc(Cl)cc3cc21
inactive: SNB-19 > 100 µM | NCI-H522 > 100 µM | KM12 > 100 µM | A549 > 100 µM | NCI-H226 > 100 µM | RPMI-8226 > 100 µM | 786-0 > 100 µM | SK-MEL-28 > 100 µM | SW-620 > 100 µM | SN12C > 100 µM | MOLT-4 > 100 µM | OVCAR-8 > 100 µM | K562 > 100 µM | SK-MEL-2 > 100 µM | NCI-H23 > 100 µM

COc1ccc(/C=C/C(=O)c2sc(N)nc2C)cc1
inactive: RXF 393 > 100 µM | SNB-19 > 100 µM | UACC-257 > 100 µM | NCI-H522 > 100 µM | KM12 > 100 µM | A549 > 100 µM | RPMI-8226 > 100 µM | 786-0 > 100 µM | SK-MEL-28 > 100 µM | SW-620 > 100 µM | SN12C > 100 µM | MOLT-4 > 100 µM | OVCAR-8 > 100 µM | K562 > 100 µM | SK-MEL-2 > 100 µM | NCI-H23 > 100 µM

CN(C(=O)C12C3C4C1C1C2C3C41C(N)=O)C(C)(C)C (configuration not stated)
inactive: SNB-19 > 100 µM | NCI-H522 > 100 µM | KM12 > 100 µM | A549 > 100 µM | NCI-H226 > 100 µM | 786-0 > 100 µM | SK-MEL-28 > 100 µM | SW-620 > 100 µM | SN12C > 100 µM | MOLT-4 > 100 µM | OVCAR-8 > 100 µM | K562 > 100 µM | NCI-H23 > 100 µM

CC(=O)OCC1OC(n2c(=O)[nH]c(=O)c3nn[nH]c32)C(OC(C)=O)C(OC(C)=O)C1OC(C)=O (configuration not stated)
inactive: RXF 393 > 100 µM | SNB-19 > 100 µM | UACC-257 > 100 µM | NCI-H522 > 100 µM | A549 > 100 µM | RPMI-8226 > 100 µM | 786-0 > 100 µM | SK-MEL-28 > 100 µM | SW-620 > 100 µM | SN12C > 100 µM | MOLT-4 > 100 µM | OVCAR-8 > 100 µM | K562 > 100 µM | SK-MEL-2 > 100 µM | NCI-H23 > 100 µM

O=C(N/C(=C\c1ccc(Oc2ccc(Cl)c(Cl)c2)cc1)c1nc2ccccc2[nH]1)c1ccccc1
inactive: RXF 393 13.9 µM | SNB-19 15.6 µM | NCI-H522 15.9 µM | KM12 15.3 µM | A549 17.9 µM | 786-0 17.3 µM | SK-MEL-28 18.4 µM | SW-620 16.6 µM | SN12C 18.4 µM | MOLT-4 18.7 µM | OVCAR-8 14.6 µM | K562 8.91 µM | SK-MEL-2 19.2 µM | NCI-H23 13.3 µM

O=C(/C=C/c1ccc(Cl)c(Cl)c1)c1cccc2ccccc12
inactive: SNB-19 6.85 µM | UACC-257 15.9 µM | NCI-H522 2.97 µM | KM12 4.4 µM | A549 15.7 µM | NCI-H226 14.4 µM | RPMI-8226 2.29 µM | 786-0 3.4 µM | SK-MEL-28 17.8 µM | SW-620 1.71 µM | SN12C 16.9 µM | OVCAR-8 2.16 µM | K562 3.17 µM | NCI-H23 8.17 µM

NC(=O)N/N=C(\CC1OC(=O)c2ccccc21)c1ccco1 (configuration not stated)
inactive: RXF 393 > 100 µM | SNB-19 > 100 µM | UACC-257 > 100 µM | NCI-H522 > 100 µM | KM12 > 100 µM | A549 > 100 µM | NCI-H226 > 100 µM | 786-0 92.9 µM | SK-MEL-28 > 100 µM | SW-620 > 100 µM | MOLT-4 > 100 µM | K562 > 100 µM | SK-MEL-2 > 100 µM | NCI-H23 > 100 µM

Source: ChEMBL document CHEMBL1201862, “PubChem BioAssay data set” (2004)
